Like-named read-outs stand apart in the source and are kept apart here.
Columns and labels:
[1] = system: B16F10 mouse melanoma cells; test: B16F10 IFNγ-induced cellular growth inhibition assay; type: cell-based; conditions: Mus musculus, B16-F10, 33 μM compound
Method: B16F10 mouse melanoma cells (ATCC Cat ^#CRL-6475, Manassas, Va.) were seeded at a density of 500 cells per well in a 384-well clear bottom plate (Corning Cat^# 3765, Corning, N.Y.) in 25 μL total volume of DMEM+10% FBS (Sigma Cat ^#D6429 and Sigma Cat ^#F4135, St. Louis, Mo.). Cells were allowed to adhere overnight at 37° C.+5% CO2. On the following day, 12.5 μL of mouse IFNγ (RD systems Cat485-MI/CF, Minneapolis, Minn.) was added to half of the plate (columns 13-24) at a concentration of 2 ng/mL for a final assay concentration of 0.5 ng/mL of IFNγ. Media only (12.5 μL of DMEM+10% FBS) was added to the remainder of the plate (columns 1-12). Next, compounds resuspended in DMSO (Sigma Cat ^#D2650) at 100 mM were diluted in semi-log dilutions in DMSO ranging from 100 mM to 0.001 mM and DMSO only controls were included. The compound/DMSO dilutions were further diluted 1:250 in DMEM+10% FBS, and 12.5 μL of these dilutions were added in triplicates to cells of both treatment arms (with and without IFNγ). Final compound concentrations ranged from 100 μM to 0.001 μM with a final DMSO concentration of 0.1%. Compounds were only dosed in the inner 240 wells, avoiding the outer 2-well perimeter of the plate to minimize edge effects. Finally, the plate was loaded into an IncuCyte® S3 Live Cell Analysis System (Essen Bioscience-Sartorius, Ann Arbor, Mich.) maintained in a 37° C.+5% CO2 incubator, allowed to equilibrate for 2 hours, and imaged every 6 hours for 5 days. Confluence over time for compound dilutions in the presence and absence of IFNγ was measured. Growth inhibition values were obtained when the “DMSO/no IFNγ” control reached confluence >95%. At these time points, the percent growth inhibition of each compound at the indicated concentration was calculated relative to the “DMSO/with IFNγ” control.

[2] = target: T1, His tagged PTPN2 (TC45) protein (Homo sapiens, UniProt P17706); test: Mobility shift assay (MSA) for potency of PTPN2 inhibitors; type: biochemical; conditions: read-out: PTPN2 MSA IC50
T1 construct: made in house
T1 sequence (P17706 with tags, fused parts or gaps isoform P17706-2): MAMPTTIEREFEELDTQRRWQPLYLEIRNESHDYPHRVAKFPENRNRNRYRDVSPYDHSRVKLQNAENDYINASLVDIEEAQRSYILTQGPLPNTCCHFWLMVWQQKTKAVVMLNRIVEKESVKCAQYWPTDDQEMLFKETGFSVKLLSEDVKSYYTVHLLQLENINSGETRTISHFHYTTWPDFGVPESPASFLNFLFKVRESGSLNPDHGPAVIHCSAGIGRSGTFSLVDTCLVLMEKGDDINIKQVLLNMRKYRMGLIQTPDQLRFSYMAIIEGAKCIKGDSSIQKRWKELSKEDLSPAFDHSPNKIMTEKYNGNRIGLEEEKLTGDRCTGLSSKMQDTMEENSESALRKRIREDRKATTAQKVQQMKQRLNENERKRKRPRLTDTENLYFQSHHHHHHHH
Outline: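 His-tagged PTPN2 TC45 (0.5 nM) was preincubated with compound (12-point, 1:3) for 10 min at room temperature in 50 mM HEPES pH 7.5, 1 mM EGTA, 10 mM EDTA, 0.01% Tween 20, 2 mM DTT. OG488-labelled phospho-insulin-receptor peptide ([…]) was then added for 10 min. After quenching, dephosphorylation was measured by microfluidic mobility shift and IC50 derived from % inhibition.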

[3] = +0.5 ng/mL IFNγ, relative to DMSO control, read-out: % B16F10 growth inhibition (+0.5 ng/mL IFNγ) @ 33 μM
[4] = no IFNγ, read-out: % B16F10 growth inhibition (no IFNγ) @ 33 μM

Row | SMILES | inhibition at 33 µM [1, 3] [%] | inhibition at 33 µM [1, 4] [%] | IC50 [2] [nM]
1 | O=C1CN(c2c(O)cc3ccc(C4=CCOCC4)cc3c2F)S(=O)(=O)N1 [Compound 264, 5-[7-(3,6-dihydro-2H-pyran-4-yl)-1-fluoro-3-hydroxynaphthalen-2-yl]-1λ^6,2,5-thiadiazolidine-1,1,3-trione] | 60 to 90 | < 25 | 1 to 10
2 | O=C1CN(c2c(O)cc3ccc(OC4COC4)cc3c2F)S(=O)(=O)N1 [Compound 274, 5-{1-fluoro-3-hydroxy-7-[(oxetan-3-yl)oxy]naphthalen-2-yl}-1λ^6,2,5-thiadiazolidine-1,1,3-trione] | 60 to 90 | < 25 | 1 to 10
3 | O=C1CN(c2c(O)cc3ccc(CCC4CC4)cc3c2F)S(=O)(=O)N1 [Compound 209, 5-[7-(2-cyclopropylethyl)-1-fluoro-3-hydroxynaphthalen-2-yl]-1λ^6,2,5-thiadiazolidine-1,1,3-trione] | 60 to 90 | < 25 | 1 to 10
4 | COCCNc1ccc2cc(O)c(N3CC(=O)NS3(=O)=O)c(F)c2c1 [Compound 179, 5-{1-fluoro-3-hydroxy-7-[(2-methoxyethyl)amino]naphthalen-2-yl}-1λ^6,2,5-thiadiazolidine-1,1,3-trione] | > 90 | < 25 | 10 to 100
5 | O=C1CN(c2c(O)cc3ccc(NCCN4CCC4)cc3c2F)S(=O)(=O)N1 [Compound 177, 5-(7-{[2-(azetidin-1-yl)ethyl]amino}-1-fluoro-3-hydroxynaphthalen-2-yl)-1λ^6,2,5-thiadiazolidine-1,1,3-trione] | > 90 | < 25 | 1 to 10
6 | CC(C)(CC#N)CCOc1ccc2cc(O)c(N3CC(=O)NS3(=O)=O)c(F)c2c1 [Compound 115, 5-{[8-fluoro-6-hydroxy-7-(1,1,4-trioxo-1λ^6,2,5-thiadiazolidin-2-yl)naphthalen-2-yl]oxy}-3,3-dimethylpentanenitrile] | 60 to 90 | < 25 | < 1
7 | O=C1CN(c2c(O)cc3ccc(OCCF)cc3c2F)S(=O)(=O)N1 [Compound 198, 5-[1-fluoro-7-(2-fluoroethoxy)-3-hydroxynaphthalen-2-yl]-1λ^6,2,5-thiadiazolidine-1,1,3-trione] | 60 to 90 | < 25 | 1 to 10
8 | COCCCOc1ccc2cc(O)c(N3CC(=O)NS3(=O)=O)c(F)c2c1 [Compound 247, 5-[1-fluoro-3-hydroxy-7-(3-methoxypropoxy)naphthalen-2-yl]-1λ^6,2,5-thiadiazolidine-1,1,3-trione] | 60 to 90 | < 25 | 1 to 10
9 | N#CCOc1ccc2cc(O)c(N3CC(=O)NS3(=O)=O)c(F)c2c1 [Compound 203, {[8-fluoro-6-hydroxy-7-(1,1,4-trioxo-1λ^6,2,5-thiadiazolidin-2-yl)naphthalen-2-yl]oxy}acetonitrile] | 60 to 90 | < 25 | 1 to 10
10 | Cc1nn(C)cc1S(=O)(=O)N1CC=C(c2ccc3cc(O)c(N4CC(=O)NS4(=O)=O)c(F)c3c2)C1 [Compound 310, 5-{7-[1-(1,3-dimethyl-1H-pyrazole-4-sulfonyl)-2,5-dihydro-1H-pyrrol-3-yl]-1-fluoro-3-hydroxynaphthalen-2-yl}-1λ^6,2,5-thiadiazolidine-1,1,3-trione] | > 90 | < 25 | < 1
11 | O=C1CN(c2c(O)cc3ccc(C4=CCN(S(=O)(=O)C5CC5)CC4)cc3c2F)S(=O)(=O)N1 [Compound 297, 5-{7-[1-(cyclopropanesulfonyl)-1,2,3,6-tetrahydropyridin-4-yl]-1-fluoro-3-hydroxynaphthalen-2-yl}-1λ^6,2,5-thiadiazolidine-1,1,3-trione] | 25 to 59 | < 25 | 1 to 10

Reference: US20210009542A1 (Calico Life Sciences LLC, priority 2018, published 2021)
